What was measured:
Test in all cases: relative viability (nuclei count vs DMSO), 5 days (fraction); higher = more cells survive
Bleomycin + Linsitinib = compound: CC1=C(N=C(N=C1N)[C@H](CC(=O)N)NC[C@@H](C(=O)N)N)C(=O)N[C@@H]([C@H](C2=CN=CN2)OC3C(C(C(C(O3)CO)O)O)OC4C(C(C(C(O4)CO)O)OC(=O)N)O)C(=O)N[C@H](C)[C@H]([C@H](C)C(=O)N[C@@H]([C@@H](C)O)C(=O)NCCC5=NC(=CS5)C6=NC(=CS6)C(=O)NCCC[S+](C)C)O [Bleomycin] + C[C@]1(O)C[C@@H](c2nc(-c3ccc4ccc(-c5ccccc5)nc4c3)c3c(N)nccn32)C1 [Linsitinib] (partner 1 µM); conditions: main component drawn
Outline: (§1)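 Relative viability was taken as the ratio of nuclei in treated wells to nuclei in vehicle wells. Lung cancer cell lines in 1536-well plates received compounds by pin tool one day after seeding, either one drug alone or a fixed anchor-drug dose plus five library-drug doses (not always all listed) in √10 steps. Nuclei were counted on 4× images after 5 days of treatment, and values are medians of duplicate plates.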

Bleomycin + OSI-027 = compound: CC1=C(N=C(N=C1N)[C@H](CC(=O)N)NC[C@@H](C(=O)N)N)C(=O)N[C@@H]([C@H](C2=CN=CN2)OC3C(C(C(C(O3)CO)O)O)OC4C(C(C(C(O4)CO)O)OC(=O)N)O)C(=O)N[C@H](C)[C@H]([C@H](C)C(=O)N[C@@H]([C@@H](C)O)C(=O)NCCC5=NC(=CS5)C6=NC(=CS6)C(=O)NCCC[S+](C)C)O [Bleomycin] + COc1cccc2cc(-c3nc([C@H]4CC[C@H](C(=O)O)CC4)n4ncnc(N)c34)[nH]c12 [OSI-027] (partner 0.5 µM); conditions: main component drawn
Outline: as §1

Etoposide + Luminespib = compound: COc1cc([C@@H]2c3cc4c(cc3[C@@H](O[C@@H]3O[C@@H]5CO[C@@H](C)O[C@H]5[C@H](O)[C@H]3O)[C@H]3COC(=O)[C@H]23)OCO4)cc(OC)c1O [Etoposide] + CCNC(=O)c1noc(-c2cc(C(C)C)c(O)cc2O)c1-c1ccc(CN2CCOCC2)cc1 [Luminespib] (partner 0.01 µM)
Outline: as §1

Bleomycin + Phenformin = compound: CC1=C(N=C(N=C1N)[C@H](CC(=O)N)NC[C@@H](C(=O)N)N)C(=O)N[C@@H]([C@H](C2=CN=CN2)OC3C(C(C(C(O3)CO)O)O)OC4C(C(C(C(O4)CO)O)OC(=O)N)O)C(=O)N[C@H](C)[C@H]([C@H](C)C(=O)N[C@@H]([C@@H](C)O)C(=O)NCCC5=NC(=CS5)C6=NC(=CS6)C(=O)NCCC[S+](C)C)O [Bleomycin] + N=C(N)NC(=N)NCCc1ccccc1 [Phenformin] (partner 250 µM); conditions: main component drawn
Outline: as §1

Cell Line | relative viability (Bleomycin + Linsitinib; first compound 0.01 µM) | relative viability (Bleomycin + Linsitinib; first compound 0.03162 µM) | relative viability (Bleomycin + Linsitinib; first compound 0.1 µM) | relative viability (Bleomycin + Linsitinib; first compound 0.3162 µM) | relative viability (Bleomycin + Linsitinib; first compound 1 µM) | relative viability (Bleomycin + OSI-027; first compound 0.01 µM) | relative viability (Bleomycin + OSI-027; first compound 0.03162 µM) | relative viability (Bleomycin + OSI-027; first compound 0.1 µM) | relative viability (Bleomycin + OSI-027; first compound 0.3162 µM) | relative viability (Bleomycin + OSI-027; first compound 1 µM) | relative viability (Etoposide + Luminespib; first compound 0.01 µM) | relative viability (Etoposide + Luminespib; first compound 0.03162 µM) | relative viability (Etoposide + Luminespib; first compound 0.1 µM) | relative viability (Etoposide + Luminespib; first compound 0.3162 µM) | relative viability (Etoposide + Luminespib; first compound 1 µM) | relative viability (Bleomycin + Phenformin; first compound 0.01 µM) | relative viability (Bleomycin + Phenformin; first compound 0.03162 µM) | relative viability (Bleomycin + Phenformin; first compound 0.1 µM) | relative viability (Bleomycin + Phenformin; first compound 0.3162 µM) | relative viability (Bleomycin + Phenformin; first compound 1 µM)
NCI-H1792 | 0.515 | 0.484 | 0.281 | 0.202 | 0.189 | 0.728 | 0.863 | 0.649 | 0.459 | 0.338 | 0.317 | 0.472 | 0.205 | 0.215 | 0.248 | 0.316 | 0.309 | 0.195 | 0.197 | 0.164
LCLC-97TM1 | 0.138 | 0.165 | 0.141 | 0.109 | 0.0963 | 0.444 | 0.403 | 0.177 | 0.196 | 0.108 | 0.788 | 0.78 | 0.465 | 0.175 | 0.154 | 0.337 | 0.401 | 0.241 | 0.192 | 0.173
LCLC-103H | 1.03 | 1.06 | 1.06 | 1.13 | 0.564 | 0.39 | 0.451 | 0.468 | 0.34 | 0.219 | 0.924 | 1.17 | 0.954 | 0.832 | 0.541 | 0.329 | 0.333 | 0.294 | 0.274 | 0.223
RERF-LC-KJ | 0.617 | 0.502 | 0.502 | 0.233 | 0.22 | 0.378 | 0.364 | 0.314 | 0.244 | 0.239 | 1.16 | 1.2 | 1.29 | 0.93 | 0.724 | 0.287 | 0.271 | 0.269 | 0.209 | 0.183
BEN | 0.862 | 0.868 | 0.896 | 0.637 | 0.682 | 0.284 | 0.299 | 0.286 | 0.243 | 0.288 | 0.235 | 0.583 |  | 0.206 | 0.245 | 0.247 | 0.277 | 0.251 | 0.24 | 0.235
NCI-H1666 | 0.677 | 0.543 | 0.486 | 0.335 | 0.269 | 0.678 | 0.671 | 0.636 | 0.515 | 0.408 | 0.949 | 0.906 | 0.77 | 0.399 | 0.406 | 0.528 | 0.516 | 0.494 | 0.344 | 0.302
LC-2-ad | 0.725 | 0.691 | 0.352 | 0.178 | 0.118 | 0.552 | 0.711 | 0.382 | 0.302 | 0.221 | 0.899 | 0.833 | 0.711 | 0.34 | 0.305 | 0.493 | 0.536 | 0.385 | 0.283 | 0.238
SW 1573 | 0.705 | 0.567 | 0.417 | 0.311 | 0.176 | 0.566 | 0.407 | 0.382 | 0.258 | 0.169 | 0.131 | 0.164 | 0.355 | 0.152 | 0.0996 | 0.276 | 0.316 | 0.272 | 0.205 | 0.14
COR-L 105 | 0.765 | 0.798 | 0.708 | 0.393 | 0.317 | 0.591 | 0.567 | 0.639 | 0.339 | 0.377 | 0.96 | 0.765 | 0.758 | 0.625 | 0.776 | 0.49 | 0.394 | 0.399 | 0.315 | 0.35
NCI-H1975 | 0.896 | 0.823 | 0.806 | 0.315 | 0.221 | 0.566 | 0.638 | 0.435 | 0.153 | 0.132 | 0.34 | 0.199 | 0.125 | 0.242 | 0.199 | 0.322 | 0.316 | 0.253 | 0.162 | 0.123
NCI-H1993 | 0.736 | 0.745 | 0.693 | 0.59 | 0.518 | 0.541 | 0.483 | 0.513 | 0.535 | 0.422 | 0.827 | 0.726 | 0.757 | 0.73 | 0.48 | 0.501 | 0.512 | 0.478 | 0.419 | 0.44
SK-LU-1 | 0.821 | 0.921 | 0.929 | 0.471 | 0.39 | 0.338 | 0.417 | 0.366 | 0.272 | 0.206 | 0.237 | 0.243 | 0.189 | 0.191 | 0.183 | 0.46 | 0.696 | 0.5 | 0.31 | 0.209
NCI-H2347 | 0.848 | 0.846 | 0.831 | 0.484 | 0.464 | 0.338 | 0.505 | 0.373 | 0.199 | 0.303 | 0.498 | 0.407 | 0.299 | 0.237 | 0.285 | 0.374 | 0.437 | 0.222 | 0.255 | 0.286
EMC-BAC-2 | 0.746 | 0.696 | 0.688 | 0.38 | 0.265 | 0.298 | 0.326 | 0.304 | 0.257 | 0.159 | 0.895 | 0.932 | 0.651 | 0.297 | 0.248 | 0.46 | 0.468 | 0.391 | 0.275 | 0.217
